Experimental findings from US9624167B2, “N-(4-hydroxy-4-methyl-cyclohexyl)-4-phenyl-benzenesulfonamides and N-(4-hydroxy-4-methyl-cyclohexyl)-4-(2-pyridyl)benzenesulfonamides and their therapeutic use” (PIMCO 2664 LIMITED, priority 2013, dated 2017) are described below.

For data set [1], the system named is GADD45a-GFP reporter in TK6 human lymphoblastoid cell line. Kind of data set: GreenScreen HC genotoxicity (GADD45a-GFP reporter). Format: cell-based. As to conditions: GreenScreen HC, positive or negative. From the text: GreenScreen HC is a mammalian cell-based assay for measuring the genotoxicity and cytotoxicity of chemical compounds and mixtures.
The term genotoxic is used to describe substances that are capable of causing damage to genetic material (DNA) within a cell, which may ultimately have mutagenic, carcinogenic or teratogenic effects in humans.
The GreenScreen assay reports genotoxic stress as an increase in fluorescence from a genetically modified derivative of the p53-competent TK6 human lymphoblastoid cell line. In the modified cells, regulatory DNA sequences which promote the transcription of the GADD45a gene control the expression of Green Fluorescent Protein (GFP). GADD45a has a central role in genomic integrity, and genotoxic stress induces its transcription. Exposure to a genotoxic compound therefore increases the expression of GFP, which is observed as an increase in fluorescence and which is monitored by fluorescent detection using a plate reader or flow cytometer. In the GreenScreen HC assay fluorescence is normalised to the optical absorbance measurement to correct for variation in cell yield caused by loss of cell viability or cytotoxicity. The statistically defined threshold for a positive result in the GreenScreen HC assay is 1.5, i.e., 50% induction over and above the baseline for the vehicle-treated control.
A dilution series of each test compound is generated in parallel in a 96-well, black microplate with an optically clear base. A standard genotoxic compound (methyl methanesulfonate, MMS) is added as an intra-plate quality control check. The plates are analysed at 24 hour and 48 hour time points using a microplate reader, which provides measurements of light absorbance and fluorescence for cells and solutions in the microplates wells.
In addition to measurements of cell viability and genotoxicity described above, the GreenScreen assay incorporates an assessment of the effects of metabolic activation in the assay, the “GreenScreen HC S9 assay”. To accomplish this, the cells are incubated both in the presence of and absence of the post-mitochondrial supernatant liver extract (known as “S9”). S9 is routinely used in genetic toxicology to supplement the test cells with mammalian phase I metabolism. To assess metabolic activation, compounds are incubated with the TK6 strain in the presence of 1% v/v S9 fraction mix for 3 hours with a subsequent 45 hour recovery time. After the recovery period, the GFP fluorescence signal and cell viability (assessed by propidium iodide uptake) are measured using a flow cytometer. Cyclophosphamide, a commonly used control in genotoxicity studies utilising metabolic activation, is used as the positive control in the assay. In the GreenScreen HC S9 assay, genotoxicity is evaluated by induction in GFP expression quantified using the mean sample fluorescence and cytotoxicity using the propidium iodide uptake assay described above. The statistically defined threshold for a positive genotoxicity result is 1.3, i.e. 30% induction over and above the baseline for the vehicle-treated control and the result is reported as positive or negative. Cytotoxic compounds are those that show an observed decrease in relative population survival below a significance threshold set at 90% compared to vehicle-treated control, at one or more test concentrations.
Stably transfected reporter cell lines were derived from the p53-competent human lymphoblastoid TK6 cell line. The reporter cell line carries an episomally replicating plasmid bearing the upstream promoter region and other regulatory sequences of the human GADD45a gene linked to a human optimised Green Fluorescent Protein (GFP) gene. The control cell line carries an identical plasmid except for the removal of 4 base pairs at the start of the EGFP gene, such that GFP is not produced. […]

The nature of data set [2]: Rodent pharmacokinetics study. The format is in vivo, Sprague-Dawley rats. Conditions: rat; for half-life: male, Sprague-Dawley, plasma, elimination phase half-life; for p.o. AUC: oral 5 mg/kg in 0.5% CMC/0.1% Tween-80 (HMC-C-01-A in 2% dimethylacetamide/20% hydroxypropyl-β-cyclodextrin); for Bioavail, F: tentative oral bioavailability, F=AUC(p.o.)×Dose(i.v.)/AUC(i.v.)×Dose(p.o.). How it is done: Absorption and metabolic stability were studied using an in vivo pharmacokinetics assay.
Three male Sprague-Dawley rats, aged 8-12 weeks, were dosed with test compounds administered either orally or intravenously (dose level of 1 mg/kg body weight intravenous or 5 mg/kg body weight orally). Test compounds were formulated in 0.5% carboxymethylcellulose (CMC)/0.1% Tween-80 for administration via the oral route, or in 5% DMSO/10% solutol in saline for administration via the intravenous route. For compound HMC-C-01-A the oral administration was formulated in 2% dimethylacetamide/20% hydroxypropyl-β-cyclodextrin in water. Animals were given free access to food throughout the study except for fasting overnight and until 2 hours post dose on the day of dosing.
Blood samples were taken from the retro-orbital plexus at the following time points and placed in microtubes containing 20% K2EDTA solution:
Oral Dosing: predose; 0.25, 0.5, 1, 2, 4, 6, 8, and 24 hours post dose.
Intravenous Dosing: predose; 0.08, 0.25, 0.5, 1, 2, 4, 8, and 24 hours post dose.
Blood samples were centrifuged to obtain plasma, which was transferred to a separate container and frozen at −20° C.
For analysis, samples were thawed at room temperature and prepared by protein precipitation with acetonitrile spiked with internal standard (500 ng/mL glipizide) in the ratio 1:4 with plasma. The samples were then vortexed for 5 minutes and centrifuged for 10 minutes at 20,600×g at 4° C. 100 μL of the supernatant was collected for analysis. The standard samples were prepared similarly, after spiking blank rat plasma samples with 10 μL of analyte.
The pharmacokinetic parameters for the test compounds were calculated by Phoenix WinNonlin version 6.3 (Pharsight Corp, CA) using standard non-compartmental methods. Peak plasma concentrations (Cmax) and time of the peak plasma concentration (Tmax) were the observed values. The area under the plasma concentration-time curve (AUC) was determined by use of the linear trapezoidal rule up to the last measurable concentration (AUClast) and thereafter by extrapolation of the terminal elimination phase to infinity (AUCinf). The terminal elimination rate constant (kel) was determined by regression analysis of the linear terminal portion of the log plasma concentration-time curve. The elimination phase half-life (t1/2) was calculated as 0.693/kel.

In the case of `C[C@]1(O)CC[C@H](NS(=O)(=O)c2ccc(-c3ncc(Cl)cc3Cl)cc2)CC1` [HMC-N-03-A, 4-(3,5-Dichloropyridin-2-yl)-N-((1r,4r)-4-hydroxy-4-methylcyclohexyl)benzenesulfonamide], the Genotoxicity entry in data set [1] is “Negative”. Besides, in data set [2], the half-life was 3.1 h; the p.o. AUC was found to be 16 ng·h/mL; the “Bioavail, F” value was 8%.

For the compound `C[C@]1(O)CC[C@H](NS(=O)(=O)c2ccc(-c3ncc(Cl)cc3Cl)c(F)c2)CC1` [HMC-N-04-A, 4-(3,5-Dichloropyridin-2-yl)-3-fluoro-N-((1r,4r)-4-hydroxy-4-methylcyclohexyl)benzenesulfonamide], the Genotoxicity entry in data set [1] is reported as “Negative”. Further, in data set [2], the half-life was 2.9 h; the p.o. AUC worked out at 70 ng·h/mL; the “Bioavail, F” value worked out at 66%. In addition, in data set [2] (intravenous 1 mg/kg), the “i.v. AUC” value is 1279 ng·min/mL.

One may read the half-life as how long it takes for the measured level to halve. Higher therefore signals slow loss.
